Values after ≈ are worked out from the molar mass of the structure shown.
Assays:
Format in all cases: cell-based
[1] = system: Escherichia coli, Proteus vulgaris, Pseudomonas aeruginosas; test: MIC by broth microdilution (NCCLS) of IsoB0 and reference compounds (Table 44), non-gram-positive bacterial strains
Protocol: (§1) MICs were determined by the broth microdilution methodology following the standard NCCLS procedure, with or without 30% bovine serum, using bacterial inocula of approximately 5×10^5 CFU/mL. Tests were read after 20-24 h incubation at 35° C.

[2] = system: panel of gram-positive bacteria; test: MIC by broth microdilution (NCCLS) of IsoB0 and reference compounds (Table 44)
Protocol: Müller Hinton broth (Difco Laboratories, Detroit, Mich., USA) adjusted with CaCl2 and MgCl2 to a final concentrations of 20 mg/L and 10 mg/L respectively.
The microorganisms used are reference standard strains from the American Type Culture Collection (ATCC, Rockville, USA), Smith Kline and French Laboratories (SKF) and the Upjohn Company (UC, Kalamazoo, Mich., USA).
as §1

[3] = system: Candida albicans SKF 2270; test: MIC by broth microdilution (NCCLS) (Tables 42, 44)
gram positive bacteria = test: MIC by broth microdilution (NCCLS), with or without 30% bovine serum (Table 42)
Protocol: (§2) Before dissolution, each sample was analyzed by HPLC and quantified.
(§3) The microorganisms used were reference strains obtained from the American Type Culture Collection (ATCC) (Rockville, Md.), SmithKline and French Laboratories (SKF), and the Upjohn Company (UC) (Kalamazoo, Mich.).
(§4) MICs were determined by the broth microdilution methodology following the standard NCCLS procedure (NCCLS Document M7-A6, Vol. 23, No. 2, “Methods for dilution antimicrobial susceptibility tests for bacteria that grow aerobically.” Approved Guideline. January 2003, which can be herein incorporated by reference in its entirety), with or without 30% adult bovine serum (BS) (PAA Laboratories GMBH, Haidmannweg Pasching Austria), using bacterial innocula at approximately 5×10^5 CFU/ml. The media employed included cation-adjusted Müller Hinton broth (Difco Laboratories, Detroit, Mich.) that was used that was adjusted with CaCl2 and MgCl2 to a final concentration of 20 mg/L and 10 mg/L, respectively. Tests were read following 20-24 hours of incubation at 35° C.

gram-negative bacteria = test: MIC by broth microdilution (NCCLS) (Table 42)
Protocol: as §2, §3, §4

[4] = Pseudomonas aeruginosas ATCC 10145
[5] = E. faecalis ATCC29212 ref. strain
[6] = Enterococcus faecalis ATCC 7080
[7] = S. aureus ATCC 29213 ref. strain
[8] = Staphylococcus aureus Smith ATCC 19636
[9] = Streptococcus pyogenes SKF13400
[10] = Candida albicans SKF2270 (Table 44)
[11] = Candida albicans SKF 2270 (Table 42)
[12] = Streptococcus pyrogenes SKF 13400

Row | SMILES | MIC ([1]; E. coli ATCC25922 ref. strain) | MIC ([1]; Escherichia coli SKF 12140) | MIC ([1]; Proteus vulgaris ATCC 881) | MIC [1, 4] | MIC ([2]; Bacillus subtilis ATCC 6633) | MIC [2, 5] | MIC [3, 11] | MIC (gram positive bacteria; Bacillus subtilis ATCC 6633) | MIC (gram positive bacteria; [5]) | MIC (gram positive bacteria; [6]) | MIC (gram positive bacteria; [7]) | MIC (gram positive bacteria; S. aureus Smith + 30% BS) | MIC (gram positive bacteria; S. epidermidis ATCC 12228) | MIC (gram positive bacteria; S. pneumoniae Felton UC41) | MIC (gram positive bacteria; [8]) | MIC (gram positive bacteria; [12]) | MIC (gram-negative bacteria; E. coli ATCC25922 ref. strain) | MIC (gram-negative bacteria; Escherichia coli SKF 12140) | MIC (gram-negative bacteria; Proteus vulgaris ATCC 881) | MIC (gram-negative bacteria; [4]) | other results
1 | C[C@@H]1[C@H](O)[C@@H](C)/C=C/C=C/C=C/C=C/C=C/C=C/C=C/[C@H](O[C@@H]2O[C@H](C)[C@@H](O)[C@H](N)[C@@H]2O)C[C@@H]2O[C@](O)(C[C@@H](O)C[C@@H](O)[C@H](O)CC[C@@H](O)C[C@@H](O)CC(=O)O[C@H]1C)C[C@H](O)[C@H]2C(=O)O [Amph. B] | >64 µg/mL | >64 µg/mL | >64 µg/mL | >64 µg/mL | >64 µg/mL | >64 µg/mL | – | – | – | – | – | – | – | – | – | – | – | – | – | – | MIC [2, 6]: >64 µg/mL; MIC [2, 7]: >64 µg/mL; MIC ([2]; S. aureus Smith + 30% BS): >64 µg/mL; MIC ([2]; S. epidermidis ATCC 12228): >64 µg/mL; MIC ([2]; S. pneumoniae Felton UC41): >64 µg/mL; MIC [2, 8]: >64 µg/mL; MIC [2, 9]: 32 µg/mL (≈ 34.6 µM); MIC [3, 10]: 0.125 µg/mL (≈ 0.135 µM)
2 | C[C@@H]1[C@H](O)[C@@H](C)/C=C/C=C/C=C/C=C/C=C/C=C/C=C/[C@H](O[C@@H]2O[C@H](C)[C@@H](O)[C@H](N)[C@@H]2O)C[C@@H]2O[C@](O)(C[C@@H](O)C[C@@H](O)[C@H](O)CC[C@@H](O)C[C@@H](O)CC(=O)O[C@H]1C)C[C@H](O)[C@H]2C(=O)O [Amphotericin B] | – | – | – | – | – | – | 0.125 µg/mL (≈ 0.135 µM) | >64 µg/mL | >64 µg/mL | >64 µg/mL | >64 µg/mL | >64 µg/mL | >64 µg/mL | >64 µg/mL | >64 µg/mL | 32 µg/mL (≈ 34.6 µM) | >64 µg/mL | >64 µg/mL | >64 µg/mL | >64 µg/mL | –
3 | CN[C@H]1C(=O)N[C@@H]2Cc3ccc(cc3)Oc3cc4cc(c3O[C@@H]3O[C@H](C(=O)O)[C@@H](O)[C@H](O)[C@H]3NC(=O)CCCCCCCC(C)C)Oc3ccc(cc3Cl)[C@@H](O)[C@@H]3NC(=O)[C@H](NC(=O)[C@@H]4NC(=O)[C@@H](NC2=O)c2cc(cc(O)c2Cl)Oc2cc1ccc2O)c1ccc(O)c(c1)-c1c(O[C@H]2O[C@H](CO)[C@@H](O)[C@H](O)[C@@H]2O)cc(O)cc1[C@@H](C(=O)NCCCN(C)C)NC3=O [Composition A0] | – | – | – | – | – | – | >64 µg/mL | ≦0.06 mg/L | ≦0.06 mg/L | 0.125 µg/mL (≈ 0.0693 µM) | 0.125 µg/mL (≈ 0.0693 µM) | 1 µg/mL | 0.125 µg/mL (≈ 0.0693 µM) | 0.125 µg/mL (≈ 0.0693 µM) | 0.125 µg/mL (≈ 0.0693 µM) | 0.015 µg/mL (≈ 0.00832 µM) | >64 µg/mL | >64 µg/mL | >64 µg/mL | >64 µg/mL | –
4 | CN[C@H]1C(=O)N[C@@H]2Cc3ccc(cc3)Oc3cc4cc(c3O[C@@H]3O[C@H](C(=O)O)[C@@H](O)[C@H](O)[C@H]3NC(=O)CCCCCCCCC(C)C)Oc3ccc(cc3Cl)[C@@H](O)[C@@H]3NC(=O)[C@H](NC(=O)[C@@H]4NC(=O)[C@@H](NC2=O)c2cc(cc(O)c2Cl)Oc2cc1ccc2O)c1ccc(O)c(c1)-c1c(O[C@H]2O[C@H](CO)[C@@H](O)[C@H](O)[C@@H]2O)cc(O)cc1[C@@H](C(=O)NCCCN(C)C)NC3=O [Composition B0, ristomycin A aglycone, 5,31-dichloro-38-de(methoxycarbonyl)-7-demethyl-19-deoxy-56-O-(2-deoxy-2-((10-methyl-1-oxoundecyl)amino)-beta-D-glucopyranuronosyl)-38-(((3-(dimethylamino)propyl)amino)-carbonyl)-42-O-alpha-D-mannopyranosyl-N^15-methyl-] | – | – | – | – | – | – | >64 µg/mL | ≦0.06 mg/L | 0.125 µg/mL (≈ 0.0688 µM) | 0.125 µg/mL (≈ 0.0688 µM) | 0.125 µg/mL (≈ 0.0688 µM) | 2 µg/mL | ≦0.06 mg/L | ≦0.06 mg/L | 0.25 µg/mL (≈ 0.138 µM) | ≦0.06 mg/L | >64 µg/mL | >64 µg/mL | >64 µg/mL | >64 µg/mL | –
5 | CCCCCCCCCCCC(=O)N[C@H]1[C@H](Oc2c3cc4cc2Oc2ccc(cc2Cl)[C@@H](O)[C@@H]2NC(=O)[C@H](NC(=O)[C@@H]4NC(=O)[C@H]4NC(=O)[C@@H](Cc5ccc(cc5)O3)NC(=O)[C@H](NC)c3ccc(O)c(c3)Oc3cc(O)c(Cl)c4c3)c3ccc(O)c(c3)-c3c(O[C@H]4O[C@H](CO)[C@@H](O)[C@H](O)[C@@H]4O)cc(O)cc3[C@@H](C(=O)NCCCN(C)C)NC2=O)O[C@H](C(=O)O)[C@@H](O)[C@@H]1O [Composition B1] | – | – | – | – | – | – | >64 µg/mL | ≦0.06 mg/L | 0.125 µg/mL (≈ 0.0688 µM) | 0.125 µg/mL (≈ 0.0688 µM) | 0.125 µg/mL (≈ 0.0688 µM) | 2 µg/mL | ≦0.06 mg/L | ≦0.06 mg/L | 0.125 µg/mL (≈ 0.0688 µM) | ≦0.06 mg/L | >64 µg/mL | >64 µg/mL | >64 µg/mL | >64 µg/mL | –
6 | CC(C)CCCCCCCCC(=O)N[C@H]1[C@H](Oc2c3cc4cc2Oc2ccc(cc2Cl)[C@@H](O)[C@@H]2NC(=O)[C@H](NC(=O)[C@@H]4NC(=O)[C@H]4NC(=O)[C@@H](Cc5ccc(cc5)O3)NC(=O)[C@H](N(C)C)c3ccc(O)c(c3)Oc3cc(O)c(Cl)c4c3)c3ccc(O)c(c3)-c3c(O[C@H]4O[C@H](CO)[C@@H](O)[C@H](O)[C@@H]4O)cc(O)cc3[C@@H](C(=O)NCCCN(C)C)NC2=O)O[C@H](C(=O)O)[C@@H](O)[C@@H]1O [Composition B2, N^15,N^15-dimethyl dalbavancin B0] | – | – | – | – | – | – | – | – | – | – | – | – | – | – | – | – | – | – | – | – | activity across the range of gram-positive bacteria (gram positive bacteria): comparable to or greater than the activity of B0; MIC range (gram-negative bacteria; representative panel of gram-negative bacteria): 16 to 32 µg/mL
7 | CC1(C)S[C@@H]2[C@H](NC(=O)Cc3ccccc3)C(=O)N2[C@H]1C(=O)O [Pen. G] | >32 µg/mL | >32 µg/mL | >32 µg/mL | >32 µg/mL | ≦0.03 mg/L | 4 µg/mL (≈ 12 µM) | – | – | – | – | – | – | – | – | – | – | – | – | – | – | MIC [2, 6]: 32 µg/mL (≈ 95.7 µM); MIC [2, 7]: 8 µg/mL (≈ 23.9 µM); MIC ([2]; S. aureus Smith + 30% BS): 0.06 µg/mL; MIC ([2]; S. epidermidis ATCC 12228): >32 µg/mL; MIC ([2]; S. pneumoniae Felton UC41): ≦0.03 mg/L; MIC [2, 8]: 0.06 µg/mL (≈ 0.179 µM); MIC [2, 9]: ≦0.03 mg/L; MIC [3, 10]: >32 µg/mL
8 | CC1(C)S[C@@H]2[C@H](NC(=O)Cc3ccccc3)C(=O)N2[C@H]1C(=O)O [Penicillin G] | – | – | – | – | – | – | >32 µg/mL | ≦0.03 mg/L | 4 µg/mL (≈ 12 µM) | 32 µg/mL (≈ 95.7 µM) | 8 µg/mL (≈ 23.9 µM) | 0.06 µg/mL | >32 µg/mL | ≦0.03 mg/L | 0.06 µg/mL (≈ 0.179 µM) | ≦0.03 mg/L | >32 µg/mL | >32 µg/mL | >32 µg/mL | >32 µg/mL | –
9 | CN[C@H]1C(=O)N[C@@H]2Cc3ccc(cc3)Oc3cc4cc(c3O[C@@H]3O[C@H](C(=O)O)[C@@H](O)[C@H](O)[C@H]3NC(=O)CCCCCCCCC(C)C)Oc3ccc(cc3Cl)[C@@H](O)[C@@H]3NC(=O)[C@H](NC(=O)[C@@H]4NC(=O)[C@H](NC2=O)c2cc(cc(O)c2Cl)Oc2cc1ccc2O)c1ccc(O)c(c1)-c1c(O[C@H]2O[C@H](CO)[C@@H](O)[C@H](O)[C@@H]2O)cc(O)cc1[C@@H](C(=O)NCCCN(C)C)NC3=O [isoB0] | 64 µg/mL (≈ 35.2 µM) | 64 µg/mL (≈ 35.2 µM) | >64 µg/mL | >64 µg/mL | ≦0.06 mg/L | 0.25 µg/mL (≈ 0.138 µM) | – | – | – | – | – | – | – | – | – | – | – | – | – | – | activity against a panel of gram-positive bacteria [2]: very similar to dalbavancin; MIC [2, 6]: 0.25 µg/mL (≈ 0.138 µM); MIC [2, 7]: 0.25 µg/mL (≈ 0.138 µM); MIC ([2]; S. aureus Smith + 30% BS): 16 µg/mL; MIC ([2]; S. epidermidis ATCC 12228): 0.125 µg/mL (≈ 0.0688 µM); MIC ([2]; S. pneumoniae Felton UC41): 0.125 µg/mL (≈ 0.0688 µM); MIC [2, 8]: 0.5 µg/mL (≈ 0.275 µM); MIC [2, 9]: 0.06 µg/mL (≈ 0.033 µM); MIC [3, 10]: >64 µg/mL
